# Source: PubChem BioAssay AID489032 (Sanford-Burnham Center for Chemical Genomics, 2010)
# Calls of active or inactive are those of the source. How the calls were made is not given here.
# System: UPR adaptive arm reporter cells, luciferase luminescence
# Test: adaptive unfolded protein response reporter activation – cell-based, luciferase luminescence, dose response (AID 489032)
row,Structure (SMILES),EC50
1,CC(C)(C)C(=O)NC(=S)NNC(=O)c1sc2ccccc2c1Cl,> 80 µM (inactive)
2,COc1ccc(C(=O)/C=C/c2cccs2)c(OC(=O)c2cccc([N+](=O)[O-])c2)c1,> 80 µM (inactive)
3,CN(C)S(=O)(=O)c1ccc(N2CCCC2)c(C(=O)Nc2nc3ccccc3s2)c1,15.7 µM
4,CN(C)C(=O)CCc1ccc2c3c([nH]c2c1)[C@]1(CCc2ccccc2)[C@@H](C(=O)N2CCCCC2)C[C@H](CC(=O)NCCC2=CCCCC2)C(=O)N1CC3,35.9 µM (inactive)
5,Cc1ccc(-n2c(O)c(/C=N/c3ncc(Br)cc3Br)c(=O)[nH]c2=O)cc1,26.8 µM (inactive)
6,O=C(Nc1ccc(Cl)cc1)Nc1ccccc1Sc1ncc([N+](=O)[O-])s1,> 80 µM (inactive)
7,Nc1nc(Nc2cccc(F)c2)nc2ccccc12,73.9 µM (inactive)
8,CN(c1ccccc1)S(=O)(=O)c1cccc(C(=O)NCCc2ccc(O)c(O)c2)c1,32.2 µM (inactive)
9,Cn1cc(/C=C(\C#N)C(=O)Nc2cccc([N+](=O)[O-])c2)c2ccccc21,> 80 µM (inactive)
10,O=[N+]([O-])c1cc(-c2ccc(/C=N/c3nc4ccccn4c3-c3ccco3)o2)ccc1Cl,> 80 µM (inactive)
11,CCC(C)(C)C1CCC2(CC1)NC(=O)N(CC(=O)N1CCN(S(=O)(=O)c3cc(C)ccc3C)CC1)C2=O (stereo not given),27.2 µM (inactive)
12,O=C(NC(=S)Nc1ccc(NC(=O)c2cccs2)cc1)c1cc2ccccc2o1,> 80 µM (inactive)
13,Cc1ccc(C)c(N=Cc2c(O)c3ccccc3oc2=O)c1,37.1 µM (inactive)
14,Cc1cccc(Nc2nc3c(S(=O)(=O)c4ccccc4)nnn3c3ccccc23)c1C,50.2 µM (inactive)
15,Cc1ccc2nc(SCC(=O)Nc3cc(C(F)(F)F)ccc3N3CCOCC3)[nH]c2c1,> 80 µM (inactive)
16,O=C1NC(=O)N(Cc2ccccc2Cl)C(=O)/C1=C/c1cccs1,> 80 µM (inactive)
17,O=C(/C=C/c1ccc(Cl)cc1)NC(=S)Nc1ccc(N2CCOCC2)c(Cl)c1,> 80 µM (inactive)
18,Cn1nnnc1Sc1ncnc2scc(-c3ccc(Cl)cc3)c12,> 80 µM (inactive)
19,COc1ccc2nc(C)cc(SCC(=O)N/N=C/c3cccc4ccccc34)c2c1,17.8 µM
20,CC(C)(C)C(=O)NC(=S)NNC(=O)c1ccc(-c2ccccc2)cc1,9.38 µM
21,CCOC(=O)c1nnc(-c2ccccc2)nc1Sc1c(Cl)cccc1Cl,> 80 µM (inactive)
22,Oc1cc(-c2ccc(N3CCCCC3)nc2)cc2cccnc12,> 80 µM (inactive)
23,Cc1ccc(C(=O)N2N=C(c3ccc(Br)cc3)CC2c2ccccc2O)cc1 (stereo not given),> 80 µM (inactive)

row,Structure (SMILES),EC50
1,CCOC(=O)/C(=N\Nc1ccc(C(C)=O)cc1)c1csc(Nc2ccccc2)n1,> 80 µM (inactive)
2,Cc1ccc(N2CCN(c3ccc(NCc4nc5ccccc5n4C)cc3)CC2)cc1,> 80 µM (inactive)
3,O=C(Nc1ccc(SC(F)F)cc1)c1cc(-c2ccncc2)nc2ccccc12,34.7 µM (inactive)
4,Cc1ccc(O)c(NC(=S)NC(=O)Cc2ccc(Cl)cc2)c1,27.1 µM (inactive)
5,CCCNC(=O)c1c(N)n(-c2ccc3c(c2)OCO3)c2nc3ccccc3nc12,> 80 µM (inactive)
6,NS(=O)(=O)c1ccc(N/N=C/c2cn(-c3ccccc3)nc2-c2ccccc2)c([N+](=O)[O-])c1,> 80 µM (inactive)
7,Cc1ccc2c(n1)sc1c(-c3ccc(Br)cc3)c(C#N)c(N)nc12,> 80 µM (inactive)
8,CC1CCN(Cc2c(C(=O)N/N=C/c3ccc(C(F)(F)F)cc3)nnn2-c2nonc2N)CC1,> 80 µM (inactive)
9,Cc1c(O)cc2c(c1O)C(=O)CC(c1ccccc1)O2 (stereo not given),10.8 µM
10,Cc1ccc(CN2C(=O)C(=O)c3cc(C)ccc32)cc1,58.6 µM (inactive)
11,CCN(CC)c1ccc(-c2nn3c(-c4ccccc4OC)nnc3s2)cc1,> 80 µM (inactive)
12,Cc1ccc2nc(NC(=O)c3ccc(-c4nc5ccccc5s4)s3)sc2c1,> 80 µM (inactive)
13,COCc1cc(C)nc(OCC(=O)N/N=C/c2ccc(-c3cc([N+](=O)[O-])ccc3Cl)o2)c1C#N,13.5 µM
14,O=C(/C(=N/N=C/c1ccc(O)c(O)c1)c1ccccc1)c1ccccc1,> 80 µM (inactive)
15,CCc1cc2c(C)ccc(C)c2nc1SCC(=O)Nc1c[nH]c(=O)[nH]c1=O,> 80 µM (inactive)
16,C/C(CCC12CC3CC(CC(C3)C1)C2)=N\NC(N)=S,27.3 µM (inactive)
17,CCOc1ccc(C(=O)Nc2ccc(NC(=O)c3ccco3)c(Cl)c2)cc1Cl,> 80 µM (inactive)
18,CSc1ccccc1NC(=O)c1cc(-c2cccnc2)nc2ccc(Br)cc12,> 80 µM (inactive)
19,NCCOc1ccc(C23CC4CC(CC(C4)C2)C3)cc1,> 80 µM (inactive)
20,O=C(NCCc1ccc(O)c(O)c1)C1COc2ccccc2O1 (stereo not given),66.1 µM (inactive)
21,O=[N+]([O-])c1ccc(N/N=C/c2ccc(OCc3cccc4ccccc34)cc2)nc1,> 80 µM (inactive)
22,CC(C)N(C(=O)[C@H]1C[C@H](CC(=O)NCc2cccc(C(F)(F)F)c2)C(=O)N2CCc3c([nH]c4ccc(Cl)cc34)[C@]12C)C(C)C,> 80 µM (inactive)
